Results from patent US7776826B2, “Method for fostering bone formation and preservation” (Unigene Laboratories, Inc., priority 2004, dated 2010).

What was measured:
Male Sprague-Dawley rats [1] = test: PIXIMUS (DEXA) analysis of femur distal marrow cavity BMD after left femur bone marrow ablation (bmx), Groups A-J; format: in vivo, rat
Excerpt: FIG. 1 is a graphical representation of the results of a PIXIMUS analysis of the femur distal marrow cavity bone mineral density (“BMD”) of groups of laboratory rats which were sacrificed at one-week intervals during a three-week test regimen. The PIXIMUS analyzer is available from Lunar Corp., Palo Alto, Calif. and provides Dual Energy X-Ray Absorptiometry (“DEXA”) data for small animals such as mice and rats. Male Sprague-Dawley rats (5 animals per group) aged 9 weeks were sacrificed and tested at time 0 and after 1, 2 and 3 weeks. The various groups were subjected to the following treatment modalities: Group A—left femur control; Group B—left femur sham; Group C—mechanical bone marrow ablation (bmx) to alter the contents of the bone marrow cavity of the left femur; Group D—mechanical bone marrow ablation treatment (bmx) of the left femur, coupled with the administration of an amidated parathyroid hormone truncate (PTH[1-34]-NH2) during days 1-21; and Group E—a right (non-bmx) femur BMD measurement of rats treated during days 1-21 with an amidated parathyroid hormone truncate (PTH[1-34]-NH2) wherein the rat's left femur had undergone a bone ablation (bmx) treatment;
FIG. 2 is a graphical representation of the results of a PIXIMUS analysis of the femur distal marrow cavity BMD of a second set of groups of male Sprague-Dawley rats (5 animals per group) aged 9 weeks which were sacrificed and tested at time 0 and after 1, 2 and 3 weeks. The various groups were subjected to the following treatment modalities: Group F—left femur control; Group G—left femur sham; Group H—mechanical bone marrow ablation (bmx) to alter the contents of the bone marrow cavity of the left femur; Group I—mechanical bone marrow ablation (bmx) of the left femur, coupled with administration of an amidated parathyroid hormone truncate (PTH[1-34]-NH2) during days 1-7, followed by the administration of a salmon calcitonin (sCT) antiresorptive agent during days 7-21; and Group J—a right femur BMD measurement of rats treated with an amidated parathyroid hormone truncate (PTH[1-34]-NH2) wherein the rat's left femur had undergone a bone marrow ablation (bmx) treatment;
Absent the bone anabolic agent, the initial burst of bone formation is quickly followed by the resorption of newly formed bone by osteoclasts (see, e.g., the Group C curve in FIG. 1). […] Table 1 (below) sets forth the values upon which the curves obtained with Groups A-E in FIG. 1 are based. As no readings were taken for the Control (Group A) and Sham (Group B) groups at Week 1 and Week 2, these values were estimated for purposes of preparing the curves for these two Groups. Table 1, moreover, provides the standard deviations for the values obtained in each Group, which standard deviations are also indicated in FIG. 1.
As indicated herein the bmx treatment was always administered to the rats' left femur and never to the right femur. The non-ablated contralateral femur was analyzed, however, throughout the testing protocols described herein as a control used for detecting the systemic effect of the bone anabolic agent. That is, the results achieved with the contralateral (right) femur permit one to exclude the effect attributable to the bmx treatment. Moreover, analysis of the rats' right femur control also enabled the inventors to determine whether the bmx treatment of the left femur had any effect on other skeletal sites located within the body of the rat.
FIG. 2 is provided to illustrate, inter alia, the further beneficial effect achieved due to the overlapping (i.e., with PTH administration) or subsequent administration of the antiresorptive agent salmon calcitonin (sCT). First, a comparison of the curves obtained with Group H (bmx alone) and Group J (PTH+sCT with no bmx) to that obtained with Group I (bmx PTH+sCT) provide still further evidence of the synergistic effect attributable to the use of the method of the invention. […]

Male Sprague-Dawley rats [2] = test: Serum osteocalcin concentration on day of sacrifice, Groups A-J; format: in vivo, rat; conditions: bmx rats; for serum osteocalcin level, in words: up to 21 days; for Osteocalcin mean: serum
Excerpt: FIG. 5 provides a series of measurements of the serum osteocalcin concentration (in ng/ml) in the blood of the rats which are the subjects of FIGS. 3-4 on the day of sacrifice. The meaning of the abbreviations is the same as that in FIGS. 3-4;
FIG. 5 provides a graphical representation of the osteocalcin levels determined, at the time of sacrifice, in the serum of rats subjected to the following treatment modalities: bmx+PBS; bmx+ parathyroid hormone (PTH[1-34]-NH2); bmx+salmon calcitonin (CT); and bmx+ parathyroid hormone (PTH[1-34]-NH2)+CT. It is well known by those of ordinary skill in this art that osteocalcin is a biochemical marker related to the number of osteoblasts, i.e, a measure of new bone growth, which may be measured in the blood serum of the animal. […] That is, administering CT reduces the rate of bone turn-over.
Table 4 additionally provides the standard deviations for the values obtained during each of the indicated analyses, which standard deviations are also indicated in FIG. 5.
On the day of sacrifice, each rat was euthanized in a CO2 chamber. The rat's blood was then collected via a cardiac puncture. The femurs were removed and fixed in a 4% formalin solution, after which they were dehydrated in a graded series of ethanol solutions.
The bones were thereafter subjected to a variety of sample analysis techniques. These included X-ray analysis wherein the femurs were X-rayed in individually sealed plastic bags; PIXIMUS analysis using a Lunar PIXIMUS scanner to measure bone mineral density in the bone marrow cavity of the femurs; MicroCT analysis; and blood analysis for osteocalcin, PTH, CT, NTX and growth factors.

Row | Substance | bone formation / resorption by DEXA BMD curves, in words (Male Sprague-Dawley rats [1]; left femur with bmx) | BMD (DEXA) (Male Sprague-Dawley rats [1]; left femur with bmx, Week 0) | BMD (DEXA) (Male Sprague-Dawley rats [1]; left femur with bmx, Week 1) | BMD (DEXA) (Male Sprague-Dawley rats [1]; left femur with bmx, Week 2) | BMD (DEXA) (Male Sprague-Dawley rats [1]; left femur with bmx, Week 3) | BMD (DEXA) (Male Sprague-Dawley rats [1]; right (non-bmx) femur, Week 0) | BMD (DEXA) (Male Sprague-Dawley rats [1]; right (non-bmx) femur, Week 1) | BMD (DEXA) (Male Sprague-Dawley rats [1]; right (non-bmx) femur, Week 2) | BMD (DEXA) (Male Sprague-Dawley rats [1]; right (non-bmx) femur, Week 3) | serum osteocalcin level, in words (Male Sprague-Dawley rats [2]) | Osteocalcin mean (Male Sprague-Dawley rats [2]; Day 0) | Osteocalcin mean (Male Sprague-Dawley rats [2]; Day 7) | Osteocalcin mean (Male Sprague-Dawley rats [2]; Day 14) | Osteocalcin mean (Male Sprague-Dawley rats [2]; Day 21)
1 | PTH[1-34]-NH2 | unexpected increase in degree, speed and longevity of bone formation | 0.096 ± .007 gm/cm^2 | 0.166 ± .004 gm/cm^2 | 0.200 ± .030 gm/cm^2 | 0.190 ± .008 gm/cm^2 | 0.097 ± .008 gm/cm^2 | 0.124 ± .007 gm/cm^2 | 0.141 ± .007 gm/cm^2 | 0.154 ± .007 gm/cm^2 | highest and most consistent level of osteocalcin | 108.2 ng/mL | 125.5 ng/mL | 125.4 ng/mL | 117.8 ng/mL
2 | salmon calcitonin [CT, reference compound] | significantly diminishes the proportion of the newly formed bone which is resorbed |  |  |  |  |  |  |  |  | relatively steady state value of osteocalcin | 108.2 ng/mL | 100.5 ng/mL | 101 ng/mL | 69.5 ng/mL
